Measurements: patent publication US4016258A, “Vasoactive intestinal peptide from fowl” (priority 1975, dated 1977)
Ends that are not written are not given here.

Columns and labels:
rat colon = test: Isolated smooth-muscle organ strips superfused in series: rat colon; conditions: rat colon strip superfused with Krebs solution
Text: (§1) 2. Isolated smooth-muscle organs
(§2) Four strips of smooth-muscle organs: rat stomach, guinea pig trachea, rat colon, and guinea pig gallbladder, were placed in series and superfused with warm physiological solution (Krebs), bubbled with 95% O2 and 5% CO2. The organ strips were attached to special transducers which measured their contraction or relaxation.

guinea pig gallbladder = test: Isolated smooth-muscle organ strips superfused in series: guinea pig gallbladder; conditions: guinea pig gallbladder strip superfused with Krebs solution
Text: as §1, §2

Intact anesthetized dogs = test: Intact anesthetized dogs: infusion into one femoral artery, femoral blood flow and aortic blood pressure measured; type: in vivo, dog; conditions: for hypotensive effect compared with the porcine peptide: dogs, comparison with porcine vasoactive intestinal peptide
Text: 1. Intact anesthetized dogs
The peptide was infused into one femoral artery, and the blood flow in that artery, as well as the aortic blood pressure, were continually measured. During the infusion of the peptide, blood pressure fell and blood flow increased, indicating peripheral vasodilation.

guinea pig trachea = test: Isolated smooth-muscle organ strips superfused in series: guinea pig trachea
Text: as §1, §2

rat stomach = test: Isolated smooth-muscle organ strips superfused in series: rat stomach; conditions: rat stomach strip superfused with Krebs solution; often initial brief contraction followed by relaxation
Text: as §1, §2

In the case of “HSDAVFTDNYSRFRKQMAVKKYLNSVLT-NH2 [chicken peptide]”, the “effect on colon strip” value (rat colon) was “usually contracted”, the “effects on gallbladder strip” value (guinea pig gallbladder) was “variable” and the “aortic blood pressure during infusion” value (Intact anesthetized dogs; anesthetized dogs, infusion into femoral artery) was “fell”. The “blood flow in femoral artery during infusion” value (Intact anesthetized dogs; anesthetized dogs, infusion into femoral artery, indicates peripheral vasodilation) was “increased”, the “hypotensive effect compared with the porcine peptide” value (Intact anesthetized dogs) was “less marked and shorter lasting” and the “hypotensive effect compared with the porcine peptide” value (Intact anesthetized dogs; listed as peptide) was “relatively short duration”. For the same substance, the “relaxation of trachea compared with porcine peptide” value (guinea pig trachea; doses eliciting equal relaxation of stomach, chicken vs porcine peptide) was “many times greater”, the “effect on trachea strip” value (guinea pig trachea; guinea pig trachea strip superfused with Krebs solution) was “relaxation” and the “relaxant potency on guinea pig trachea relative to other smooth muscles tested” value (guinea pig trachea; in comparison with porcine vasoactive intestinal peptide) was “relatively more potent relaxant”. For the same substance, the “effect on stomach strip” value (rat stomach) was “relaxation”.
